Where “and” joins values, the source holds several entries; their conditions need not be identical. Identical values can stand only once. Like-named read-outs stand apart in the source and are kept apart here.
Columns and labels:
[1] = test system: C. elegans; experiment: C. elegans motor phenotype scoring on solid media (Punc/jerky-unc, coiled, paralyzed), wild-type young adults; assay type: in vivo, Caenorhabditis elegans; conditions: for atypical locomotion (number of animals) / coiled (number of animals) / no phene (number of animals) / paralyzed (number of animals) / any phene: mean % fraction of young adults exhibiting any phenotype (coiled, jerky-Unc or paralyzed) / any phene, mean % fraction of young adults exhibiting any phenotype (coiled, jerky-Unc or paralyzed): one hour; for atypical locomotion (number of animals) / coiled (number of animals) / no phene (number of animals) / paralyzed (number of animals): young adults, 20 animals per trial; for any phene: mean % fraction of young adults exhibiting any phenotype (coiled, jerky-Unc or paralyzed) / any phene, mean % fraction of young adults exhibiting any phenotype (coiled, jerky-Unc or paralyzed): mean of three biological replicates; for EC50: Caenorhabditis elegans, read-out: C. elegans - motor disruption EC50
[2] = test system: Dirofilaria immitis microfilariae; experiment: Dirofilaria immitis microfilariae immobility assay (DiroImager, 72 h); conditions: for % effect (motility), DIROIM MF: Dirofilaria immitis microfilariae
Procedure: We conducted experiments with the Missouri isolate of Dirofilaria immitis in two labs. In the first set of experiments, shown as part of Fig. 3c, D. immitis microfilariae and larval stage 3 (L3) worms were assayed in the laboratories of Bayer Animal Health GmbH (Monheim, Germany). For microfilariae immobility assays, approximately 250 freshly purified microfilariae were cultured in single wells of a 96-well microtiter plate containing supplemented RPMI 1640 medium[68],[69]. […] Microfilariae exposed to medium substituted with 1% DMSO were used as negative controls. Motility of microfilariae was evaluated after 72 h of drug exposure using an image-based approach—DiroImager, developed by Bayer Technology Services. As described in detail in refs. [68],[69], the DiroImager is an automated high-throughput platform that allows for high-resolution optical imaging of an entire 96-well microtiter plate.

[3] = test system: Dirofilaria immitis L3/L4; experiment: Dirofilaria immitis L3/L4 motility assay (DiroImager, 72 h); conditions: Dirofilaria immitis L4
[4] = test system: Pristionchus pacificus; experiment: Pristionchus pacificus motor disruption dose-response on solid media, 1 h; conditions: for EC50: Pristionchus pacificus, 1 h, read-out: P. pacificus motor disruption EC50; for mean % any phene: any phenotype (coiled, jerky-Unc or paralyzed) at one hour; for mean % any phene / mean % any phene (coiled, jerky-Unc or paralyzed): mean of three biological replicates; for mean % any phene (coiled, jerky-Unc or paralyzed): Pristionchus pacificus young adults
[5] = 3.75uM, single technical replicate
[6] = 15uM, single technical replicate
[7] = 60uM, single technical replicate
[8] = any motor phenotype after 1 h on solid media, ± 95% CI
[9] = conc 3.75, count of 20 animals per trial, one hour
[10] = conc 15, count of 20 animals per trial, one hour
[11] = conc 60, count of 20 animals per trial, one hour
[12] = 3.75uM, single replicate counts
[13] = conc 3.75, observed at one hour

Fc1ccccc1N1CCN(C2CCCCCC2)CC1 [Nemacol-56]
atypical locomotion (number of animals) [1, 5]: 2 and 3 and 12 and 10 | coiled (number of animals) [1, 5]: 0 | no phene (number of animals) [1, 5]: 18 and 17 and 8 and 10 | paralyzed (number of animals) [1, 5]: 0 | any phene: mean % fraction of young adults exhibiting any phenotype (coiled, jerky-Unc or paralyzed) ([1]; 3.75uM): 25.8333% | atypical locomotion (number of animals) [1, 6]: 12 and 18 and 7 and 14 and 16 | coiled (number of animals) [1, 6]: 0 and 2 | no phene (number of animals) [1, 6]: 8 and 2 and 13 and 4 | paralyzed (number of animals) [1, 6]: 0 and 2 | any phene: mean % fraction of young adults exhibiting any phenotype (coiled, jerky-Unc or paralyzed) ([1]; 15uM): 69.1667% | atypical locomotion (number of animals) [1, 7]: 2 and 3 and 10 and 0 | coiled (number of animals) [1, 7]: 5 and 6 and 4 and 3 and 8 | no phene (number of animals) [1, 7]: 0 | paralyzed (number of animals) [1, 7]: 13 and 11 and 6 and 14 and 15 and 12 | any phene: mean % fraction of young adults exhibiting any phenotype (coiled, jerky-Unc or paralyzed) ([1]; 60uM): 100% | EC50 [1, 8]: 8 ± 3.3 µM | % effect (motility), DIROIM MF ([2]; 0.016 µM): 0% | % effect (motility), DIROIM MF ([2]; 0.08 µM): 0% | % effect (motility), DIROIM MF ([2]; 0.4 µM): 0% | % effect (motility), DIROIM MF ([2]; 2 µM): 0% | % effect (motility), DIROIM MF ([2]; 10 µM): 0% | % effect (motility), DIROIM L4 ([3]; 10 µM): 0% | % effect (motility), DIROIM L4 ([3]; 50 µM): 15% | EC50 [4]: 38.4 ± 4.7 µM | mean % any phene ([4]; conc 3.75): 2.5% | rep 1 no phene [4, 9]: 20 and 18 | rep 1 paralyzed [4, 9]: 0 | rep 2 atypical locomotion [4, 9]: 0 | rep 2 coiled [4, 9]: 0 | rep 2 no phene [4, 9]: 20 | rep 2 paralyzed [4, 9]: 0 | rep 3 atypical locomotion [4, 9]: 0 | rep 3 no phene [4, 9]: 20 and 19 | rep 3 paralyzed [4, 9]: 0 | mean % any phene ([4]; conc 15): 0.8333% | rep 1 atypical locomotion [4, 10]: 0 | rep 1 coiled [4, 10]: 0 | rep 1 no phene [4, 10]: 20 | rep 1 paralyzed [4, 10]: 0 | rep 2 coiled [4, 10]: 0 | rep 2 no phene [4, 10]: 19 and 20 | rep 2 paralyzed [4, 10]: 0 | rep 3 atypical locomotion [4, 10]: 0 | rep 3 coiled [4, 10]: 0 | rep 3 no phene [4, 10]: 20 | rep 3 paralyzed [4, 10]: 0 | mean % any phene ([4]; conc 60): 85% | rep 1 atypical locomotion [4, 11]: 10 | rep 1 coiled [4, 11]: 4 and 2 | rep 1 no phene [4, 11]: 2 | rep 1 paralyzed [4, 11]: 4 and 6 | rep 2 no phene [4, 11]: 5 and 3 | rep 3 atypical locomotion [4, 11]: 14 and 13 | rep 3 coiled [4, 11]: 3 and 4 | rep 3 no phene [4, 11]: 3 | rep 3 paralyzed [4, 11]: 0

O=[N+]([O-])c1ccc(N2CCN(Cc3ccccc3)CC2)cc1 [Nemacol-6]
any phene, mean % fraction of young adults exhibiting any phenotype (coiled, jerky-Unc or paralyzed) ([1]; 3.75uM): 0% | atypical locomotion (number of animals) [1, 12]: 0 | coiled (number of animals) [1, 12]: 0 | no phene (number of animals) [1, 12]: 20 | paralyzed (number of animals) [1, 12]: 0 | any phene, mean % fraction of young adults exhibiting any phenotype (coiled, jerky-Unc or paralyzed) ([1]; 15uM): 7.5% | atypical locomotion (number of animals) ([1]; 15uM, single replicate counts): 1 and 0 and 2 and 5 | coiled (number of animals) ([1]; 15uM, single replicate counts): 0 | no phene (number of animals) ([1]; 15uM, single replicate counts): 19 and 20 and 18 and 15 | paralyzed (number of animals) ([1]; 15uM, single replicate counts): 0 | any phene, mean % fraction of young adults exhibiting any phenotype (coiled, jerky-Unc or paralyzed) ([1]; 60uM): 44.1667% | atypical locomotion (number of animals) ([1]; 60uM, single replicate counts): 5 and 3 and 4 and 19 and 13 | coiled (number of animals) ([1]; 60uM, single replicate counts): 1 and 0 and 3 | no phene (number of animals) ([1]; 60uM, single replicate counts): 14 and 17 and 12 and 16 and 1 and 7 | paralyzed (number of animals) ([1]; 60uM, single replicate counts): 0 | EC50 ([1]; 1 h): > 60 µM | % effect (motility), DIROIM MF ([2]; 0.016 µM): 0% | % effect (motility), DIROIM MF ([2]; 0.08 µM): 0% | % effect (motility), DIROIM MF ([2]; 0.4 µM): 0% | % effect (motility), DIROIM MF ([2]; 2 µM): 0% | % effect (motility), DIROIM MF ([2]; 10 µM): 0% | % effect (motility), DIROIM L4 ([3]; 2 µM): 5% | % effect (motility), DIROIM L4 ([3]; 10 µM): 6% | % effect (motility), DIROIM L4 ([3]; 50 µM): 20% | mean % any phene (coiled, jerky-Unc or paralyzed) [4, 13]: 0% | mean % any phene (coiled, jerky-Unc or paralyzed) ([4]; conc 15, observed at one hour): 1.667% | mean % any phene (coiled, jerky-Unc or paralyzed) ([4]; conc 60, observed at one hour): 23.3333% | EC50 [4]: > 60 µM

O=[N+]([O-])c1ccc(N2CCN(C3CCCC3)CC2)cc1 [Nemacol-61]
atypical locomotion (number of animals) [1, 5]: 0 and 1 | coiled (number of animals) [1, 5]: 0 and 17 and 13 | no phene (number of animals) [1, 5]: 20 and 19 and 3 and 7 | paralyzed (number of animals) [1, 5]: 0 | any phene: mean % fraction of young adults exhibiting any phenotype (coiled, jerky-Unc or paralyzed) ([1]; 3.75uM): 25.8333% | atypical locomotion (number of animals) [1, 6]: 10 and 13 and 12 and 2 and 4 | coiled (number of animals) [1, 6]: 0 and 1 and 2 and 18 and 16 | no phene (number of animals) [1, 6]: 8 and 7 and 5 and 4 and 0 | paralyzed (number of animals) [1, 6]: 2 and 0 and 4 | any phene: mean % fraction of young adults exhibiting any phenotype (coiled, jerky-Unc or paralyzed) ([1]; 15uM): 80% | atypical locomotion (number of animals) [1, 7]: 0 and 17 and 18 | coiled (number of animals) [1, 7]: 19 and 12 and 13 and 3 and 2 | no phene (number of animals) [1, 7]: 0 | paralyzed (number of animals) [1, 7]: 1 and 8 and 7 and 0 | any phene: mean % fraction of young adults exhibiting any phenotype (coiled, jerky-Unc or paralyzed) ([1]; 60uM): 100% | EC50 [1, 8]: 6.8 ± 4.1 µM | % effect (motility), DIROIM MF ([2]; 0.016 µM): 0% | % effect (motility), DIROIM MF ([2]; 0.08 µM): 0% | % effect (motility), DIROIM MF ([2]; 0.4 µM): 0% | % effect (motility), DIROIM MF ([2]; 2 µM): 0% | % effect (motility), DIROIM MF ([2]; 10 µM): 40% | EC50 ([2]; Dirofilaria immitis, 72 h, read-out: Dirofilaria immitis filariae EC50): 11 µM | % effect (motility), DIROIM L4 ([3]; 2 µM): 0% | % effect (motility), DIROIM L4 ([3]; 10 µM): 0% | % effect (motility), DIROIM L4 ([3]; 50 µM): 20% | mean % any phene (coiled, jerky-Unc or paralyzed) [4, 13]: 12.5% | mean % any phene (coiled, jerky-Unc or paralyzed) ([4]; conc 15, observed at one hour): 9.167% | mean % any phene (coiled, jerky-Unc or paralyzed) ([4]; conc 60, observed at one hour): 88.3333% | EC50 [4]: 31.2 ± 9.6 µM

CN1CCN(c2ccc([N+](=O)[O-])cc2)CC1 [Nemacol-7]
any phene, mean % fraction of young adults exhibiting any phenotype (coiled, jerky-Unc or paralyzed) ([1]; 3.75uM): 0% | atypical locomotion (number of animals) [1, 12]: 0 | coiled (number of animals) [1, 12]: 0 | no phene (number of animals) [1, 12]: 20 | paralyzed (number of animals) [1, 12]: 0 | any phene, mean % fraction of young adults exhibiting any phenotype (coiled, jerky-Unc or paralyzed) ([1]; 15uM): 3.333% | atypical locomotion (number of animals) ([1]; 15uM, single replicate counts): 0 and 1 and 2 | coiled (number of animals) ([1]; 15uM, single replicate counts): 0 | no phene (number of animals) ([1]; 15uM, single replicate counts): 20 and 19 and 18 | paralyzed (number of animals) ([1]; 15uM, single replicate counts): 0 | any phene, mean % fraction of young adults exhibiting any phenotype (coiled, jerky-Unc or paralyzed) ([1]; 60uM): 14.1667% | atypical locomotion (number of animals) ([1]; 60uM, single replicate counts): 1 and 2 and 0 and 4 and 8 | coiled (number of animals) ([1]; 60uM, single replicate counts): 0 | no phene (number of animals) ([1]; 60uM, single replicate counts): 19 and 18 and 20 and 16 and 12 | paralyzed (number of animals) ([1]; 60uM, single replicate counts): 0 | EC50 ([1]; 1 h): > 60 µM | % effect (motility), DIROIM MF ([2]; 0.016 µM): 0% | % effect (motility), DIROIM MF ([2]; 0.08 µM): 0% | % effect (motility), DIROIM MF ([2]; 0.4 µM): 0% | % effect (motility), DIROIM MF ([2]; 2 µM): 0% | % effect (motility), DIROIM MF ([2]; 10 µM): 0% | % effect (motility), DIROIM L4 ([3]; 2 µM): 5% | % effect (motility), DIROIM L4 ([3]; 10 µM): 5% | % effect (motility), DIROIM L4 ([3]; 50 µM): 10% | mean % any phene (coiled, jerky-Unc or paralyzed) [4, 13]: 1.667% | mean % any phene (coiled, jerky-Unc or paralyzed) ([4]; conc 15, observed at one hour): 5% | mean % any phene (coiled, jerky-Unc or paralyzed) ([4]; conc 60, observed at one hour): 41.6667% | EC50 [4]: > 60 µM

From paper PMC10066365, “Nemacol is a small molecule inhibitor of C. elegans vesicular acetylcholine transporter with anthelmintic potential” (Nature Communications, 2023)
